Measurements reported in US8785436B2, “1,3-oxazines as BACE 1 and/or BACE2 inhibitors” (Hoffmann-La Roche Inc., priority 2011, dated 2014).
Structures can show the parent of a compound that is named as a salt.

Target: T1, BACE1 (Homo sapiens, UniProt P56817)
T1 construct: Human HEK293 cells which are stably transfected with a vector expressing a cDNA of the human APP wt gene (APP695); endogenous in cells; host or cells: HEK293 cells stably expressing human APP695 wt
Assay: Cellular Aβ-lowering assay a) (Aβ40 ELISA, HEK293 APP cells)
Type: cell-based
Conditions: cellular assay a): HEK293 APP695 cells, 18-20 hrs incubation, read-out: BACE1 cell act. Aβ40 IC50
Method: Cellular Aβ-Lowering Assay:
a) Human HEK293 cells which are stably transfected with a vector expressing a cDNA of the human APP wt gene (APP695) were used to assess the potency of the compounds in a cellular assay. The cells were seeded in 96-well microtiter plates in cell culture medium (Iscove, plus 10% (v/v) fetal bovine serum, glutamine, penicillin/streptomycin) to about 80% confluence and the compounds were added at a 10× concentration in 1/10 volume of medium without FCS containing 8% DMSO (final concentration of DMSO was kept at 0.8% v/v). After 18-20 hrs incubation at 37° C. and 5% CO2 in a humidified incubator the culture supernatant was harvested for the determination of Aβ40 concentrations. 96 well ELISA plates (e.g., Nunc MaxiSorb) were coated with monoclonal antibody which specifically recognize the C-terminal end of Aβ40 (Brockhaus et al., NeuroReport 9, 1481-1486; 1998). After blocking of non-specific binding sites with e.g. 1% BSA and washing, the culture supernatants were added in suitable dilutions together with a horseradish peroxidase-coupled Aβ detection antibody (e.g., antibody 4G8, Senetek, Maryland Heights, Mo.) and incubated for 5 to 7 hrs. Subsequently the wells of the microtiter plate were washed extensively with Tris-buffered saline containing 0.05% Tween 20 and the assay was developed with tetramethylbenzidine/H2O2 in citric acid buffer. After stopping the reaction with one volume 1 NH2SO4 the reaction was measured in an ELISA reader at 450 nm wavelength. The concentrations of Aβ in the culture supernatants were calculated from a standard curve obtained with known amounts of pure Aβ peptide.

T1 sequence (P56817 46-501): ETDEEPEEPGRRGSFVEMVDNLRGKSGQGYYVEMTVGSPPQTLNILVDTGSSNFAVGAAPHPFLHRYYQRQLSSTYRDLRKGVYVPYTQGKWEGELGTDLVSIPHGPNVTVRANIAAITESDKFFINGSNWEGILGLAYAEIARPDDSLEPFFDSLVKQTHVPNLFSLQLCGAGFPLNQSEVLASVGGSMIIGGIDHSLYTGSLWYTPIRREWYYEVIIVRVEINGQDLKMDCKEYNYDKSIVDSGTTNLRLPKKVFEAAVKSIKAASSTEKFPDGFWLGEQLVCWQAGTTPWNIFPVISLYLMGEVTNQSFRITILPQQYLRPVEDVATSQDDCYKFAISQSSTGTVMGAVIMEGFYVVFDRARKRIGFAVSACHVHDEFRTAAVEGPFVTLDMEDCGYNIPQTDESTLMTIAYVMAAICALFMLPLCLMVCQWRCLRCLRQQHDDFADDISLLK

Point of comparison: `Cc1cc(C(C)Nc2ccc(F)c([C@@]3(C)N=C(N)OCC3(F)F)c2)[nH]n1` (mixture of isomers) [Example 17, (R)-5,5-Difluoro-4-{2-fluoro-5-[(RS)-1-(5-methyl-2H-pyrazol-3-yl)-ethylamino]-phenyl}-4-methyl-5,6-dihydro-4H-[1,3]oxazin-2-ylamine], IC50 430 nM. Against it:
- CC(Nc1ccc(F)c([C@@]2(C)N=C(N)OCC2(F)F)c1)c1nn(C)cc1Cl (mixture of isomers) [Example 18, (R)-4-{5-[(RS)-1-(4-Chloro-1-methyl-1H-pyrazol-3-yl)-ethylamino]-2-fluoro-phenyl}-5,5-difluoro-4-methyl-5,6-dihydro-4H-[1,3]oxazin-2-ylamine] — 2.9-fold higher, 1230 nM
- CC(Nc1ccc(F)c([C@@]2(C)N=C(N)OCC2(F)F)c1)c1nn(CC(F)F)cc1Cl (mixture of isomers) [Example 19, (R)-4-(5-{(RS)-1-[4-Chloro-1-(2,2-difluoro-ethyl)-1H-pyrazol-3-yl]-ethylamino}-2-fluoro-phenyl)-5,5-difluoro-4-methyl-5,6-dihydro-4H-[1,3]oxazin-2-ylamine] — 4.2-fold higher, 1800 nM
- CC(Nc1ccc(F)c([C@@]2(C)N=C(N)OCC2(F)F)c1)c1cc(C2CC2)on1 (mixture of isomers) [Example 20, (R)-4-{5-[(RS)-1-(5-Cyclopropyl-isoxazol-3-yl)-ethylamino]-2-fluoro-phenyl}-5,5-difluoro-4-methyl-5,6-dihydro-4H-[1,3]oxazin-2-ylamine] — 4.7-fold higher, 2000 nM
- C[C@]1(c2cc(NC3CCOC3)ccc2F)N=C(N)OCC1(F)F (mixture of isomers) [Example 26, (R)-5,5-Difluoro-4-{2-fluoro-5-[(RS)-(tetrahydro-furan-3-yl)amino]-phenyl}-4-methyl-5,6-dihydro-4H-[1,3]oxazin-2-ylamine] — within 1.5-fold, 400 nM
- C[C@]1(c2cc(NC3CCCc4cc(C#N)cnc43)ccc2F)N=C(N)OCC1(F)F (mixture of isomers) [Example 27, (RS)-8-[3-((R)-2-Amino-5,5-difluoro-4-methyl-5,6-dihydro-4H-[1,3]oxazin-4-yl)-4-fluoro-phenylamino]-5,6,7,8-tetrahydro-quinoline-3-carbonitrile] — within 1.5-fold, 460 nM
- C[C@]1(c2cc(NC3CS(=O)(=O)c4ccccc43)ccc2F)N=C(N)OCC1(F)F (mixture of isomers) [Example 28, (R)-4-[5-((RS)-1,1-Dioxo-2,3-dihydro-1H-1λ6-benzo[b]thiophen-3-ylamino)-2-fluoro-phenyl]-5,5-difluoro-4-methyl-5,6-dihydro-4H-[1,3]oxazin-2-ylamine] — 3.8-fold higher, 1630 nM
- C[C@]1(c2cc(NCC3CCOC3)ccc2F)N=C(N)OCC1(F)F (mixture of isomers) [Example 30, (R)-5,5-Difluoro-4-{2-fluoro-5-{[(RS)-1-(tetrahydro-furan-3-yl)methyl]-amino}-phenyl}-4-methyl-5,6-dihydro-4H-[1,3]oxazin-2-ylamine] — 5-fold higher, 2160 nM
- C[C@]1(c2cc3c(cc2F)OCC(c2ccc(Cl)cn2)N3)N=C(N)OCC1(F)F (mixture of isomers) [Example 38, (R)-4-[(RS)-3-(5-Chloro-pyridin-2-yl)-7-fluoro-3,4-dihydro-2H-benzo[1,4]oxazin-6-yl]-5,5-difluoro-4-methyl-5,6-dihydro-4H-[1,3]oxazin-2-ylamine] — 13-fold higher, 5460 nM
- C[C@@]1(c2cc(NC3CCCC3)ccc2F)CCOC(N)=N1 [Example 2, (S)-4-(5-Cyclopentylamino-2-fluoro-phenyl)-4-methyl-5,6-dihydro-4H-[1,3]oxazin-2-ylamine] — within 1.5-fold, 340 nM
- C[C@]1(c2cc(NCc3ccsc3)ccc2F)N=C(N)OC[C@@H]1F [Example 6, (4R,5R)-5-Fluoro-4-{2-fluoro-5-[(thiophen-3-ylmethyl)-amino]-phenyl}-4-methyl-5,6-dihydro-4H-[1,3]oxazin-2-ylamine] — 1.5-fold higher, 660 nM
- C[C@]1(c2cc(-c3cncc(C#N)c3)ccc2F)N=C(N)OC[C@@H]1F [Example 9, 5-[3-((4R,5R)-2-Amino-5-fluoro-4-methyl-5,6-dihydro-4H-[1,3]oxazin-4-yl)-4-fluoro-phenyl]-nicotinonitrile] — 2.3-fold lower, 190 nM
- C[C@]1(c2cc(-c3cnn(-c4ccc(F)cc4)c3)ccc2F)N=C(N)OC[C@@H]1F [Example 10, (4R,5R)-5-Fluoro-4-{2-fluoro-5-[1-(4-fluoro-phenyl)-1H-pyrazol-4-yl]-phenyl}-4-methyl-5,6-dihydro-4H-[1,3]oxazin-2-ylamine Hydrochloride] — within 1.5-fold, 360 nM
- Cc1cnn(-c2ccc(F)c([C@@]3(C)N=C(N)OC[C@@H]3F)c2)c1 [Example 11, (4R,5R)-5-Fluoro-4-[2-fluoro-5-(4-methyl-pyrazol-1-yl)-phenyl]-4-methyl-5,6-dihydro-4H-[1,3]oxazin-2-ylamine] — 3-fold higher, 1300 nM
- CC1(CNc2ccc(F)c([C@@]3(C)N=C(N)OCC3(F)F)c2)COC1 [Example 24, (R)-5,5-Difluoro-4-{2-fluoro-5-[(3-methyl-oxetan-3-ylmethyl)-amino]-phenyl}-4-methyl-5,6-dihydro-4H-[1,3]oxazin-2-ylamine] — within 1.5-fold, 300 nM
- C[C@]1(c2cc(NC3COC3)ccc2F)N=C(N)OCC1(F)F [Example 29, (R)-5,5-Difluoro-4-[2-fluoro-5-(oxetan-3-ylamino)-phenyl]-4-methyl-5,6-dihydro-4H-[1,3]oxazin-2-ylamine] — 4.6-fold higher, 1960 nM
- C[C@]1(c2cc(-c3cnn(-c4ccc(F)cc4)c3)ccc2F)N=C(N)OCC1(F)F [Example 31, (R)-5,5-Difluoro-4-{2-fluoro-5-[1-(4-fluoro-phenyl)-1H-pyrazol-4-yl]-phenyl}-4-methyl-5,6-dihydro-4H-[1,3]oxazin-2-ylamine] — 20-fold higher, 8440 nM
- C[C@]1(c2cccc(OCc3ccc(C#N)cc3)c2)N=C(N)OCC1(F)F [Example 34, 4-[3-((R)-2-Amino-5,5-difluoro-4-methyl-5,6-dihydro-4H-[1,3]oxazin-4-yl)-phenoxymethyl]-benzonitrile] — 3.3-fold higher, 1400 nM
- C[C@]1(c2cccc(OCc3ccc(Cl)cc3)c2)N=C(N)OCC1(F)F [Example 35, (R)-4-[3-(4-Chloro-benzyloxy)-phenyl]-5,5-difluoro-4-methyl-5,6-dihydro-4H-[1,3]oxazin-2-ylamine] — 9.3-fold higher, 4000 nM
- C[C@]1(c2cccc(OCc3ccc(C(F)(F)F)cc3)c2)N=C(N)OCC1(F)F [Example 36, (R)-5,5-Difluoro-4-methyl-4-[3-(4-trifluoromethyl-benzyloxy)-phenyl]-5,6-dihydro-4H-[1,3]oxazin-2-ylamine] — 18-fold higher, 7740 nM
- Cc1ccc(Cc2nc3ccc([C@@]4(C)N=C(N)OCC4(F)F)cc3[nH]2)cc1 [Example 37, (R)-5,5-Difluoro-4-methyl-4-[2-(4-methyl-benzyl)-3H-benzoimidazol-5-yl]-5,6-dihydro-4H-[1,3]oxazin-2-ylamine] — within 1.5-fold, 300 nM
- COc1ccc(Cc2cc3cc(F)c([C@@]4(C)N=C(N)OCC4(F)F)cc3[nH]2)cc1 [Example 39, (R)-5,5-Difluoro-4-[5-fluoro-2-(4-methoxy-benzyl)-1H-indol-6-yl]-4-methyl-5,6-dihydro-4H-[1,3]oxazin-2-ylamine] — 13-fold higher, 5670 nM
- C#CCNC(=O)c1ccc(F)c([C@@]2(C)N=C(N)OCC2(F)F)c1 [Example 41, 3-((R)-2-Amino-5,5-difluoro-4-methyl-5,6-dihydro-4H-[1,3]oxazin-4-yl)-4-fluoro-N-prop-2-ynyl-benzamide] — 15-fold higher, 6620 nM
- CC1(C)OC(N)=N[C@](C)(c2cc(Nc3ccccc3Cl)ccc2F)C1(F)F [Example 42, (R)-4-[5-(2-Chloro-phenylamino)-2-fluoro-phenyl]-5,5-difluoro-4,6,6-trimethyl-5,6-dihydro-4H-[1,3]oxazin-2-ylamine] — 3.4-fold higher, 1470 nM
- Cc1ccccc1Nc1ccc(F)c([C@@]2(C)N=C(N)OC(C)(C)C2(F)F)c1 [Example 45, (R)-5,5-Difluoro-4-(2-fluoro-5-o-tolylamino-phenyl)-4,6,6-trimethyl-5,6-dihydro-4H-[1,3]oxazin-2-ylamine] — 6.8-fold higher, 2920 nM
- CC1(C)OC(N)=N[C@](C)(c2cc(Nc3ccccc3C(F)(F)F)ccc2F)C1(F)F [Example 46, (R)-5,5-Difluoro-4-[2-fluoro-5-(2-trifluoromethyl-phenylamino)-phenyl]-4,6,6-trimethyl-5,6-dihydro-4H-[1,3]oxazin-2-ylamine] — 16-fold higher, 6920 nM
- CC1(C)OC(N)=N[C@](C)(c2cc(-c3cncc(Cl)c3)ccc2F)C1(F)F [Example 50, (R)-4-[5-(5-Chloro-pyridin-3-yl)-2-fluoro-phenyl]-5,5-difluoro-4,6,6-trimethyl-5,6-dihydro-4H-[1,3]oxazin-2-ylamine Hydrochloride] — 21-fold higher, 9080 nM
